Experimental data reported in patent US20070225334A1, “Methods for treating cognitive and other disorders” (Wyeth, priority 2006, published 2007).

Legend:
[1] = system: schedule-induced polydipsia; assay: Schedule-induced polydipsia model of obsessive-compulsive disorder (adjunctive drinking); assay type: in vivo, Sprague-Dawley rat; details: for reduction in adjunctive drinking behavior: relative to vehicle
Description: In this model, a food pellet is delivered once per minute for a two-hour period. A water bottle is available in the test chamber. […] This excessive manifestation of a normal behavior (drinking) provides face validity to the model. […] Most importantly, clinically effective drugs for the treatment of obsessive-compulsive disorder decrease adjunctive drinking.
Male Sprague-Dawley rats weighing 300-400 grams were individually housed in an AALAC-accredited facility that was maintained on a 12-h light dark cycle (lights on at 0600 h) with freely available water. All in vivo studies were performed in accordance to the Guide for the Care and Use of Laboratory Animals as adopted and promulgated by the National Institutes of Health (Pub. 85-23, 1985). Rats were maintained at approximately 85% of their free-feeding body weights by food presented during the session and by post-session feeding.
Procedure Experimental sessions were conducted in a standard operant conditioning chamber placed inside a ventilated sound-attenuating shell that was equipped with white noise to mask extraneous sounds (Med Associates, Georgia, Vt.). A food trough was on the front panel of the chamber and a water bottle was mounted to the side panel. Experimental sessions were 120 minutes in duration and were conducted five days per week (Monday through Friday). Test sessions occurred generally on Tuesdays and Fridays, with the remaining days serving as control days. For each session, one food pellet (Bioserv, 45 mg precision dustless pellet) was dispensed into the food trough each minute for the duration of the session, for a total of 120 pellets being delivered. This schedule of food presentation elicits an abnormal adjunctive drinking behavior in rats such that they consume and exaggerated volume of water, approximately 5-10 fold larger than under normal conditions. Compound 1 or vehicle was administered immediately prior to the start of the experimental session. Each dose of Compound 1 was tested on a separate day, with the appropriate control sessions being conducted prior to each test. At the end of the test session, the volume of water and the number of food pellets that each rat consumed were measured.
(§1) Water consumption was calculated and expressed as percent (%) of vehicle control intake. Results were analyzed using a one-way ANOVA with least significant difference (LSD) post-hoc test. […] Where appropriate, ED50 values (dose that decreases adjunctive water intake to 50% of vehicle values) were calculated using a logistic dose response analysis.

5-HT2C receptor [2] = molecular target: T1, 5-HT2C receptor (Homo sapiens, UniProt P28335); assay: 5-HT2C receptor agonist function; assay type: biochemical
T1 sequence (P28335 33-458): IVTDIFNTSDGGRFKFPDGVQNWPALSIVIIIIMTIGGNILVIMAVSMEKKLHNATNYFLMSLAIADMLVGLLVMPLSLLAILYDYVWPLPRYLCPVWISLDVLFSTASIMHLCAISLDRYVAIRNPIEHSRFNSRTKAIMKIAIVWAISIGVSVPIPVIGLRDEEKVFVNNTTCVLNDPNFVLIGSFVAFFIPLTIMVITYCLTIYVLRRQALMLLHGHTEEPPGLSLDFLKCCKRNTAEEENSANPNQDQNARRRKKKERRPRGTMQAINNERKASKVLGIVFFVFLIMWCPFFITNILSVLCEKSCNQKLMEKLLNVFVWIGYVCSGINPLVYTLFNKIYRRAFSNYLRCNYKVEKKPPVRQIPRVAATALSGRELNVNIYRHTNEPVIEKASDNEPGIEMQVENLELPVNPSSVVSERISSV

[3] = system: acetylcholine in medial prefrontal cortex; assay: In vivo microdialysis, acetylcholine in medial prefrontal cortex; parameters: species or system Sprague-Dawley rat; details: 1.7 mg/kg s.c.
Experimental: Animals: Adult male Sprague-Dawley rats (Charles River, Wilmington, Mass.) weighing 280-350 g at the time of surgery were used for all microdialysis experiments. Adult male Long-Evans rats (Charles River, Wilmington, Mass.) weighing 180-220 g were used for NOR studies. Rats were housed individually for recognition memory studies. All animals had free access to food and water and were group housed in the AAALAC-accredited facility that was maintained on a 12 h light dark cycle (lights on at 0600 h) for at least 1 week prior to surgery or behavioral testing. All in vivo studies were performed in accordance to the ‘Guide for the Care and Use of Laboratory Animals’ as adopted and promulgated by the National Institutes of Health (Pub. 85-23, 1985). […]
Analysis of Acetylcholine Dialysate levels of acetylcholine were determined using LC/MS/MS. […]
Acetylcholine data were quantified using peak area against an internal standard and acquired using Masslynx software (Micromass, Beverly, Mass., USA). The mean of the concentration of baseline samples was calculated and denoted as 0%. All sample values were expressed as a percent change from this pre-injection mean baseline value (% change from baseline). Neurochemical data, excluding pre-injection values, were analyzed by a two-way analysis of variance (ANOVA) with repeated measures (time). […]

5-HT2C receptor [4] = molecular target: T1, 5-HT2C receptor; assay: 5-HT2C receptor affinity; assay type: binding
[5] = system: extracellular glutamate levels in the rat mPFC; assay: In vivo microdialysis, extracellular glutamate in mPFC; parameters: species or system Sprague-Dawley rat; details: 1.7 mg/kg s.c., acute, F(1,15)=4.76, P=0.0454 vs vehicle
Experimental: Animals: Adult male Sprague-Dawley rats (Charles River, Wilmington, Mass.) weighing 280-350 g at the time of surgery were used for all microdialysis experiments. Adult male Long-Evans rats (Charles River, Wilmington, Mass.) weighing 180-220 g were used for NOR studies. Rats were housed individually for recognition memory studies. All animals had free access to food and water and were group housed in the AAALAC-accredited facility that was maintained on a 12 h light dark cycle (lights on at 0600 h) for at least 1 week prior to surgery or behavioral testing. All in vivo studies were performed in accordance to the ‘Guide for the Care and Use of Laboratory Animals’ as adopted and promulgated by the National Institutes of Health (Pub. 85-23, 1985).
Stereotaxic Surgery Following induction of anesthesia with 3% halothane (Fluothane; Zeneca, Cheshire, UK), animals were secured in a stereotaxic frame with ear and incisor bars (David Kopf, Tujunga, Calif.). Anesthesia was maintained by continuous administration of halothane (1-2%) while a microdialysis guide cannula (CMA/12, CMA Microdialysis, Stockholm, Sweden) was implanted above the dorsal hippocampus (AP: −4.3 mm ML: −2.6 mm DV: −2.1 mm) or the medial prefrontal cortex (AP: 3.2 mm ML: −0.6 mm DV: −3.8 mm). […]
Dialysate (10 μL) was collected and analyzed for extracellular glutamate concentrations. […]

[6] = system: normal eating and drinking behavior; assay: Modified procedure for normal feeding and drinking behavior (120 pellets at session start); assay type: in vivo, Sprague-Dawley rat; details: 1 mg/kg
Experimental: In order to determine if Compound 1 would affect normal eating and drinking behavior, Compound 1 or vehicle was tested under modified conditions. Under these modified conditions, 120 food pellets were placed into the food trough at the beginning of the session and no further food pellets were dispensed. At the end of the test session, the volume of water and the number of food pellets consumed by each rat were measured as described earlier.
as §1

EC50 (5-HT2C receptor [2]): 0.4 nM | agonist character at the 5-HT2C receptor (5-HT2C receptor [2]): potent full agonist | Ki (5-HT2C receptor [4]): 0.37 nM
Compound: NC[C@H]1Cc2cc(F)cc(-c3c(Cl)cccc3Cl)c2O1 (stereo in doubt) [Compound 1, (7-(2,6-dichlorophenyl)-5-fluoro-2,3-dihydrobenzofuran-2-yl)methanamine]
reduction in adjunctive drinking behavior ([1]; 0.3 mg/kg i.p., p=0.003): 45% | rats not eating all food pellets presented ([1]; 1 mg/kg i.p., schedule-induced polydipsia session): one of the six rats did not eat all of the food pellets presented | reduction in adjunctive drinking behavior ([1]; 1 mg/kg i.p., p<0.0001): 81% | effect on adjunctive drinking behavior ([1]; 0.1-1 mg/kg, i.p., acute, F(3,20)=16.91, p<0.0001): dose-dependent decrease | ED50 ([1]; Rattus norvegicus, ip, 95% CI: 0.22-0.57 mg/kg, read-out: ED50 (dose that decreases adjunctive water intake to 50% of vehicle values)): 0.36 mg/kg | maximal increase in acetylcholine with respect to baseline [3]: 48% | extracellular glutamate levels [5]: 132% | decrease in water consumption relative to vehicle controls ([6]; modified procedure (normal drinking)): 26% | rats failing to eat all food pellets presented ([6]; modified procedure (normal feeding)): two of the six rats tested failed to eat all of the food pellets presented
